The text below walks through data of US20220211663A1, “NANO CO-DELIVERY OF QUERCETIN AND ALANTOLACTONE PROMOTES ANTI-TUMOR RESPONSE THROUGH SYNERGISTIC IMMUNOGENIC CELL DEATH FOR MICROSATELLITE-STABLE COLORECTAL CANCER” (The University of North Carolina at Chapel Hill, priority 2019, published 2022).

For series [1], the system named is orthotopic CT26-FL3 tumors. The series is described as follows: Orthotopic colon tumor growth inhibition and survival. The format is in vivo, Balb/c mice. The following applies: i.v. four times every other day, Q 3 mg/kg, A 9 mg/kg. As to the method:
An orthotopic CT26-FL3 colorectal tumor model was established in female Balb/c mice as reported previously. Song et al., 2018. Twenty-eight tumor-bearing mice were divided into seven random groups: PBS, free Q (Q-F), free A (A-F), combination of free Q and A (QA-F), Q-M, A-M and QA-M. Formulations were intravenously injected to mice once every 2 days by total four injections (i.v.) with a Q dose of 3 mg/kg and A dose of 9 mg/kg. Mice in PBS groups were injected with PBS as control. The tumor burden was detected by intraperitoneal (i.p.) injection of 100 μL of D-luciferin (Pierce™, 20 mg/mL) followed by bioluminescent analysis using an IVIS® Kinetics Optical System (Perkin Elmer, Calif.). The tumor growth and body weight of mice were recorded every 2 days. The increment of tumor volume was calculated as luminescence intensities and normalized to the original value on the first day of measurement (Vt/V0). Body weight of mice in each group was documented. Nine days after the last injection, mice were sacrificed and the tumor, heart, liver, spleen, lung and kidney tissues were removed and used for the present study. Blood samples were collected from the orbital plexus into heparinized tubes and then centrifuged at 5,000 rpm for five minutes to separate the plasma. One portion of tumor, spleen and lymph nodes were collected for flow cytometric analysis. […]

Series [2] deals with CT26-FL3 cells. Kind of series: CRT translocation by immunofluorescence (ICD). The following applies: free Q alone 0.07 μM, 4 h. The format is cell-based, murine. The method, then:
(§1) CT26-FL3 cells were seeded in 35-mm cell culture dishes with glass bottom at the density of 2×10^5 per dish and incubated for 24 h before treatment. The cell culture medium was removed and replenished with different combination of Q and A containing media at the indicated concentrations for 4 h for CRT detection and for 8 h for HMGB1 detection. Cells were fixed and washed 3 times. A primary antibody, anti-CRT antibody (ab2907, 1:500, Abcam), diluted in cold blocking buffer (10% goat serum in PBS), was added for 60 min. After three washes in cold PBS, cells were then incubated for 60 min with the Alexa Fluor® 488 Goat Anti-Rabbit (IgG) (ab150077, 1:500, Abcam) diluted in a cold blocking buffer. Cells were fixed with 4% PFA for 20 min, and DAPI Mounting Medium was added for nuclear staining. For intracellular HMGB1 staining, cells were fixed and washed 3 times. Afterwards, cells were permeabilized with 0.1% Triton X-100 containing blocking buffer for 10 min, and rinsed three times with PBS, and nonspecific binding sites were blocked for 30 min A primary antibody for HMGB1 (ab79823, 1:500, Abcam) was added for 60 min. Cells were then incubated for 60 min with the Alexa Fluor® 488 Goat Anti-Rabbit (IgG) (ab150077, 1:500, Abcam) diluted in a cold blocking buffer. Cells were fixed with 4% PFA for 20 min, and DAPI Mounting Medium was added for nuclear staining. […]

Series [3] has as its system CT26-FL3 cells. Kind of series: HMGB1 release by immunofluorescence (ICD). The format is cell-based, murine. The method, then:
as §1

For series [4], the system named is CT26-FL3 cells. Kind of series: MTT cytotoxicity and combination index (Chou and Talalay). The format is cell-based, murine. Particulars: Mus musculus, 24 h incubation, read-out: IC50 of Q alone. As to the method:
The cytotoxicity of free Q, free A and drugs combination against CT26-FL3 cells were assessed using the MTT (3-[4,5-dimethylthiazol-2-yl]-2,5-diphenyltetrazolium bromide) method. Zhang et al., 2017. Cells were seeded in 96-well plates (5×10^3 cells per well) and incubated for 24 h before treatment. Then the culture medium was withdrawn and fresh medium containing free drugs and drug combination with a series of concentration were added to each well. Following 24-h incubation, cell viability was determined by MTT assay. The synergy of Q and A was evaluated by using the Chou and Talalay method to calculate the combination index (CI). Zhang et al., 2014; Chou et al., 1984. CI was calculated by using the following equation (1): CI=(D)1/(Dx)1+(D)2/(Dx)2 (1) […]

Series [5] is described as follows: Maximum concentration of free drug in lecithin suspension (sink condition). The format is physicochemical. The following applies: lecithin suspension 100 mg/mL. The method, then:
The release behaviors of Q and A from QA-M were investigated by a dialysis method. The QA-M (2 mL) was placed into a preswelled dialysis bag (cutting Mw 8000), which was then immersed into empty lecithin suspension (PC-98T, 100 mg/mL, 100 mL) at 37° C. for 72 hours under stirring at a speed of 100 rpm. The lecithin suspension was formed by film-hydration method followed by sonication and the size of this lecithin suspension was around 100 nm. Sink condition was confirmed by determination of the maximum concentration for free Q and A in the lecithin suspension, which was 0.5 mg/mL and 0.8 mg/mL, respectively. At different time points, 1.0 mL of sample was withdrawn from the release medium, mixed with methanol and measured for the Q and A using the HPLC method mentioned above. The release medium was replenished with an equal volume of fresh medium at 37° C. Sink condition was maintained throughout the experiment. All measurements were performed in triplicate, and the mean values and standard deviations are calculated.

With `O=c1c(O)c(-c2ccc(O)c(O)c2)oc2cc(O)cc(O)c12` [Q-F, quercetin], in series [1], the tumor growth result is “very similar to that of QA-F”.

Consider `O=c1c(O)c(-c2ccc(O)c(O)c2)oc2cc(O)cc(O)c12` [Q, quercetin], for which the CRT translocation result with CT26-FL3 cells [2] was “minimum or undetectable effect”. Moreover, in the series with CT26-FL3 cells [3] (free Q alone 0.33 μM, 8 h), the HMGB1 release result is recorded as “minimum or undetectable effect”. In addition, in the series on CT26-FL3 cells [3] (single drug: Q 0.33 μM, A 1.3 μM), the “release of HMGB1 compared to control group” value is recorded as “undetectable release”. For the same compound, the IC50 in the series on CT26-FL3 cells [4] came out at 148 µM. In addition, in series [5], the “maximum concentration in the lecithin suspension” value is given as 0.5 mg/mL.
